Experimental data from patent US20230165806A1, “Topical Therapy of Skin Fibrosis and Melanoma” (Board of Regents, The University of Texas System, priority 2021, published 2023).

Test: Solubility of NAVI in COA ionic liquid
Format: physicochemical
Source text: Skin melanoma remains one of the fastest-growing and the most common types of cancer in the United States and worldwide. Although primary melanoma can be removed by surgery if detected, advanced metastatic melanoma cannot be managed by surgery alone and thus an alternative and effective therapeutic approach is required. Direct local application of anti-cancer drugs may effectively treat topical cancerous skin lesions when surgery is not feasible. However, these therapies are severely limited due to the protective nature of the skin and the fact that current topical treatments may cause skin irritation, burning, light sensitivity, scaling, and inflammation. To treat early-stage melanoma, we have developed a topical formulation of Navitoclax (NAVI), a BCL-2 inhibitor that upregulates apoptosis, in association with an ionic liquid composed of Choline Octanoate (COA) at a molar ratio of 1:1. NAVI is a small hydrophobic molecule that solubilizes at 20% (w/v) when dissolved into 50% (DW v/v) COA. […] Therefore, COA-mediated topical delivery of NAVI enhanced transportation through the skin barrier and held the drug in the deeper skin layers for an extended period compared to the control.
The main challenges in treating fibrosis with chemotherapeutics are epidermal layer penetration, the appropriate concentration, and drug retention within the layer for a more extended period. […]

- solubility (choline octanoate (COA) ionic liquid, aqueous with cosolvent or surfactant or cyclodextrin, with COA, read-out: solubility of NAVI increased by COA): ≤ 0.15 mg/mL
- solubility of NAVI (dissolved into 50% (DW v/v) COA): 20 % (w/v)
SMILES: CC1(C)CCC(c2ccc(Cl)cc2)=C(CN2CCN(c3ccc(C(=O)NS(=O)(=O)c4ccc(N[C@H](CCN5CCOCC5)CSc5ccccc5)c(S(=O)(=O)C(F)(F)F)c4)cc3)CC2)C1 [NAVI, Navitoclax]
